Assay [1] addresses GST-Syk Full Protein (human) (Homo sapiens, UniProt P43405). The experiment in a line: Syk kinase inhibition test (HTRF method). Particulars: HTRF, 100 μM ATP, 30 min room temperature, average; read-out: sykHTRF ave IC50. Type of assay: biochemical. In short, it runs like this: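 HTRF read-out: after EDTA termination and 1 h with XL665-streptavidin and Eu-anti-phosphotyrosine, the 665/620 nm ratio was measured. The reaction ran 30 min at 20–25 °C with final 6.4 nM human GST-Syk, 250 nM biotinylated peptide, 100 μM ATP, pH 7.0 HEPES buffer, 2% DMSO.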

For assay [2], the system named is cultured human mast cells. The experiment in a line: Degranulation inhibition test using cultured human mast cells (IgE cross-linking, β-Hexosaminidase release). Type of assay: cell-based. The note with it: Mast cell; cultured human mast cells, anti-hIgE stimulation, β-Hexosaminidase index, average; read-out: human degranulation ave. IC50. An outline of the steps:
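Degranulation was triggered by anti-hIgE (10 μg/mL final, 30 min, 37 °C) after a 10-min compound pretreatment (DMSO 0.1%) of cord-blood CD34+-derived mast cells primed 5 days with IL-4 and IgE. β-Hexosaminidase in supernatant was measured with p-nitrophenyl-GlcNAc substrate (A405), expressed against water-lysed total; IC50 (M).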

The values below come from patent publication US7803801B2, “Aminopyridine compounds having Syk inhibitory activity” (Japan Tobacco, Inc., priority 2005, dated 2010).

Bounds are passed on as bounds.

For the compound `Cc1ccnc(Nc2cccc(-c3cnc([C@H](C)NC(=O)C4CC4)s3)n2)c1` [Compound A-141], the IC50 in assay [1] and in assay [2] was 0.1 to 1 µM throughout.

Consider `Cc1ccnc(Nc2cccc(-c3cnc(CN)s3)n2)c1` [Compound A-142], for which the IC50 in assay [1] is 0.1 to 1 µM; in assay [2], greater than 1 µM.

As for `CC(=O)NCc1ncc(-c2cccc(Nc3cc(C)ccn3)n2)s1` [Compound A-143], the IC50 in assay [1] and in assay [2] was 0.1 to 1 µM throughout.

For the compound `CCOC(=O)CC(C)(C)c1ncc(-c2cccc(Nc3cc(C)ccn3)n2)s1` [Compound A-144], the IC50 in assay [1] and in assay [2] was greater than 1 µM in each case.

As to `Cc1ccnc(Nc2cccc(-c3cnc(C(C)(C)CC(=O)O)s3)n2)c1` [Compound A-145], the IC50 is 0.1 to 1 µM in assay [1] and greater than 1 µM in assay [2].

For `CC(=O)OCC(=O)N[C@@H](C)c1ncc(-c2cccc(Nc3cc(C)ccn3)n2)s1` [Compound A-146], the IC50 in assay [1] and in assay [2] was 0.1 to 1 µM each time.

In the case of `Cc1ccnc(Nc2cccc(-c3cnc([C@H](C)NC(=O)CO)s3)n2)c1` [Compound A-147, 2-hydroxy-N—((S)-1-{5-[6-(4-methylpyridin-2-ylamino)pyridin-2-yl]thiazol-2-yl}ethyl)acetamide], the IC50 in assay [1] was less than 0.1 µM; in assay [2], 0.1 to 1 µM.

As for `Cc1ccnc(Nc2cccc(-c3cnc(C(=O)NCCC(=O)O)s3)n2)c1` [Compound A-148, 3-({5-[6-(4-methylpyridin-2-ylamino)pyridin-2-yl]thiazole-2-carbonyl}amino)propionic acid], the IC50 in assay [1] was less than 0.1 µM; in assay [2], greater than 1 µM.

Take `Cc1ccnc(Nc2cccc(-c3cnc([C@H](N)c4ccc(OCc5ccccc5)cc4)s3)n2)c1` [Compound A-150]: the results for the IC50 in assay [1] and in assay [2] were 0.1 to 1 µM and greater than 1 µM, respectively.

For the compound `Cc1ccnc(Nc2cccc(-c3cnc(CCc4ccc(C(=O)O)cc4)s3)n2)c1` [Compound A-151, 4-(2-{5-[6-(4-methylpyridin-2-ylamino)pyridin-2-yl]thiazol-2-yl}ethyl)benzoic acid], the results for the IC50 in assay [1] and in assay [2] were less than 0.1 µM and 0.1 to 1 µM, respectively.

Take `Cc1ccnc(Nc2cccc(-c3cnc(CN4CCC(O)CC4)s3)n2)c1` [Compound A-152, 1-{5-[6-(4-methylpyridin-2-ylamino)pyridin-2-yl]thiazol-2-ylmethyl}piperidin-4-ol]: the figures for the IC50 in assay [1] and in assay [2] were less than 0.1 µM and 0.1 to 1 µM, respectively.

With `COC(=O)C(C)(C)NC(=O)c1ncc(-c2cccc(Nc3cc(C)ccn3)n2)s1` [Compound A-153], the IC50 in assay [1] is 0.1 to 1 µM; in assay [2], greater than 1 µM.

As for `Cc1ccnc(Nc2cccc(-c3cnc(C(=O)NC(C)(C)C(=O)O)s3)n2)c1` [Compound A-154], the values for the IC50 in assay [1] and in assay [2] were 0.1 to 1 µM and greater than 1 µM, respectively.

For the compound `CCOC(=O)CC(C)(C)NC(=O)c1ncc(-c2cccc(Nc3cc(C)ccn3)n2)s1` [Compound A-155], the IC50 in assay [1] is 0.1 to 1 µM; in assay [2], greater than 1 µM.

Take `Cc1ccnc(Nc2cccc(-c3cnc(CC(C)(C)CC(=O)O)s3)n2)c1` [Compound A-157]: the 50% inhibitory concentration (IC50) in assay [1] was 0.1 to 1 µM; in assay [2], greater than 1 µM.

As to `Cc1ccnc(Nc2cccc(-c3cnc(CC(C)(C)CCO)s3)n2)c1` [Compound A-158, 3,3-dimethyl-4-{5-[6-(4-methylpyridin-2-ylamino)pyridin-2-yl]thiazol-2-yl}butan-1-ol], the IC50 in assay [1] was less than 0.1 µM; in assay [2], 0.1 to 1 µM.

As to `Cc1ccnc(Nc2cccc(-c3cnc(CCc4ccc(CO)cc4)s3)n2)c1` [Compound A-159, [4-(2-{5-[6-(4-methylpyridin-2-ylamino)pyridin-2-yl]thiazol-2-yl}ethyl)phenyl]methanol], the IC50 in assay [1] is less than 0.1 µM; in assay [2], 0.1 to 1 µM.

For `CC(=O)N[C@H](c1ccc(OCc2ccccc2)cc1)c1ncc(-c2cccc(Nc3cc(C)ccn3)n2)s1` [Compound A-160], the IC50 in assay [1] was 0.1 to 1 µM; in assay [2] it was greater than 1 µM.

Consider `CC(=O)N[C@H](c1ccc(O)cc1)c1ncc(-c2cccc(Nc3cc(C)ccn3)n2)s1` [Compound A-161, N—((R)-(4-hydroxyphenyl)-{5-[6-(4-methylpyridin-2-ylamino)pyridin-2-yl]thiazol-2-yl}methyl)acetamide], for which the results for the IC50 in assay [1] and in assay [2] were less than 0.1 µM and 0.1 to 1 µM, respectively.

As for `Cc1ccnc(Nc2cccc(-c3cnc(CCc4ccc(C(=O)NCCO)cc4)s3)n2)c1` [Compound A-162, N-(2-hydroxyethyl)-4-(2-{5-[6-(4-methylpyridin-2-ylamino)pyridin-2-yl]thiazol-2-yl}ethyl)benzamide], the IC50 is less than 0.1 µM in assay [1] and 0.1 to 1 µM in assay [2].

In the case of `COC(=O)CCNCc1ncc(-c2cccc(Nc3cc(C)ccn3)n2)s1` [Compound A-163], the IC50 in assay [1] was 0.1 to 1 µM; in assay [2], greater than 1 µM.

Turning to `COC(=O)CCN(Cc1ncc(-c2cccc(Nc3cc(C)ccn3)n2)s1)C(C)=O` [Compound A-164], the IC50 in assay [1] is 0.1 to 1 µM; in assay [2], greater than 1 µM.

Regarding `Cc1ccnc(Nc2cccc(-c3cnc(CNCCC(=O)O)s3)n2)c1` [Compound A-165], the half-maximal inhibitory concentration (IC50) in assay [1] was 0.1 to 1 µM; in assay [2] it was greater than 1 µM.

For the compound `CC(=O)N[C@@H](C)c1ncc(-c2cccc(Nc3cc(OCCN(C)C)ccn3)n2)s1` [Compound A-166], the IC50 in assay [1] and in assay [2] was greater than 1 µM throughout.

As to `CCOC(=O)C1CCN(Cc2ncc(-c3cccc(Nc4cc(C)ccn4)n3)s2)CC1` [Compound A-167], the IC50 in assay [1] was 0.1 to 1 µM; in assay [2], greater than 1 µM.

Turning to `Cc1ccnc(Nc2cccc(-c3cnc(CN4CCC(C(=O)O)CC4)s3)n2)c1` [Compound A-168], the IC50 in assay [1] is 0.1 to 1 µM; in assay [2] it was greater than 1 µM.

For the compound `Cc1ccnc(Nc2cccc(-c3cnc(CNC(=O)CC(=O)O)s3)n2)c1` [Compound A-169], the IC50 was 0.1 to 1 µM in assay [1] and greater than 1 µM in assay [2].

Turning to `COC(=O)N1CCC(c2ncc(-c3cccc(Nc4cc(C)ccn4)n3)s2)CC1` [Compound A-170], the IC50 in assay [1] and in assay [2] was 0.1 to 1 µM in each case.

Take `Cc1ccnc(Nc2cccc(-c3cnc(CCCCC(=O)NS(C)(=O)=O)s3)n2)c1` [Compound A-171]: the IC50 was 0.1 to 1 µM in assay [1] and greater than 1 µM in assay [2].

Take `Cc1ccnc(Nc2cccc(-c3cnc(CCC4CCC(=O)CC4)s3)n2)c1` [Compound A-172, 4-(2-{5-[6-(4-methylpyridin-2-ylamino)pyridin-2-yl]thiazol-2-yl}ethyl)cyclohexanone]: the IC50 in assay [1] is less than 0.1 µM; in assay [2], 0.1 to 1 µM.

As for `Cc1ccnc(Nc2cccc(-c3cnc(CCC4CCC(O)CC4)s3)n2)c1` (centres unmarked) [Compound A-173, 4-(2-{5-[6-(4-methylpyridin-2-ylamino)pyridin-2-yl]thiazol-2-yl}ethyl)cyclohexanol], the IC50 in assay [1] is less than 0.1 µM; in assay [2] it was 0.1 to 1 µM.

Take `Cc1ccnc(Nc2cccc(-c3cnc([C@H]4CC[C@H](C(=O)N5C[C@@H](O)[C@@H](O)C5)CC4)s3)n2)c1` [Compound A-174, ((3R,4S)-3,4-dihydroxypyrrolidin-1-yl)-(trans-4-{5-[6-(4-methylpyridin-2-ylamino)pyridin-2-yl]thiazol-2-yl}cyclohexyl)methanone]: the IC50 in assay [1] was less than 0.1 µM; in assay [2], 0.1 to 1 µM.

Regarding `Cc1ccnc(Nc2cccc(-c3cnc([C@H]4CC[C@H](C(=O)NC(C)(C)CO)CC4)s3)n2)c1` [Compound A-175], the IC50 in assay [1] and in assay [2] was 0.1 to 1 µM in each case.

Consider `Cc1ccnc(Nc2cccc(-c3cnc([C@H]4CC[C@H](C(=O)N5CCNCC5)CC4)s3)n2)c1` [Compound A-176, (trans-4-{5-[6-(4-methylpyridin-2-ylamino)pyridin-2-yl]thiazol-2-yl}cyclohexyl)-(piperazin-1-yl)methanone], for which the values for the IC50 in assay [1] and in assay [2] were less than 0.1 µM and greater than 1 µM, respectively.

Regarding `Cc1ccnc(Nc2cccc(-c3cnc([C@@H](N)Cc4ccc(NC(=O)OCc5ccccc5)cc4)s3)n2)c1` [Compound A-177], the IC50 was 0.1 to 1 µM in assay [1] and greater than 1 µM in assay [2].

As to `CC(=O)N[C@@H](Cc1ccc(NC(=O)OCc2ccccc2)cc1)c1ncc(-c2cccc(Nc3cc(C)ccn3)n2)s1` [Compound A-178], the IC50 in assay [1] and in assay [2] was greater than 1 µM throughout.

Take `CC(=O)Nc1ccc(C[C@H](NC(C)=O)c2ncc(-c3cccc(Nc4cc(C)ccn4)n3)s2)cc1` [Compound A-179]: the IC50 in assay [1] and in assay [2] was 0.1 to 1 µM throughout.

For the compound `Cc1ccnc(Nc2cccc(-c3cnc([C@@H](N)Cc4ccc(N)cc4)s3)n2)c1` [Compound A-180], the results for the IC50 in assay [1] and in assay [2] were 0.1 to 1 µM and greater than 1 µM, respectively.

On to `CC(=O)N(CCC(=O)O)Cc1ncc(-c2cccc(Nc3cc(C)ccn3)n2)s1` [Compound A-181], for which the results for the IC50 in assay [1] and in assay [2] were 0.1 to 1 µM and greater than 1 µM, respectively.

For `Cc1ccnc(Nc2cccc(-c3cnc(C4CCN(C(N)=O)CC4)s3)n2)c1` [Compound A-182, 4-{5-[6-(4-methylpyridin-2-ylamino)pyridin-2-yl]thiazol-2-yl}piperidine-1-carboxamide], the IC50 in assay [1] was less than 0.1 µM; in assay [2], 0.1 to 1 µM.

Consider `Cc1ccnc(Nc2cccc(-c3cnc(C4CCN(C)CC4)s3)n2)c1` [Compound A-183], for which the half-maximal inhibitory concentration (IC50) in assay [1] was 0.1 to 1 µM; in assay [2] it was greater than 1 µM.

Consider `COC(=O)CN1CCC(c2ncc(-c3cccc(Nc4cc(C)ccn4)n3)s2)CC1` [Compound A-184], for which the IC50 in assay [1] and in assay [2] was 0.1 to 1 µM in each case.

For `Cc1ccnc(Nc2cccc(-c3cnc(C4CCN(CC(=O)O)CC4)s3)n2)c1` [Compound A-185], the IC50 in assay [1] is 0.1 to 1 µM; in assay [2], greater than 1 µM.
